Test results taken from patent publication US6348447B1, “Pharmaceutical composition for the treatment of functional dyspepsia and/or irritable bowel syndrome and new use of substances therein” (priority 1998, dated 2002).
“Also recorded” adds a separate entry of the source.

Columns and labels:
dyspepsia symptoms = conditions: dysmotility-like and gastroesophageal reflux-like dyspepsia; cited from earlier work
[1] = tested on: gastric emptying and small intestinal motility; test: Gastric emptying and small intestinal motility in the rat; type: in vivo
pancreatic secretion = conditions: in vivo; cited from earlier work
[2] = tested on: small bowel motility in humans with IBS; test: Small bowel manometry in fasted IBS patients during intravenous GLP-1 infusion; type: in vivo, human; conditions: for Contraction frequency / Contraction amplitude / Contraction area / Motility index Ln (Sum (mm Hg*s)/min): 4 h, fasted IBS patients; for Contraction frequency: angle of Treitz; for Contraction frequency / Contraction amplitude / Contraction area / Motility index Ln (Sum (mm Hg*s)/min) / Adjusted MMC: mean ±SEM n=6; for Adjusted MMC: premature MMC at onset subtracted
Description: Experiments were carried out in 12 subjects fulfilling the Rome-criteria for IBS. In the fasted subjects a small bowel manometry tube was passed through the nose and located in antroduodenal region under fluoroscopy. Then, small bowel manometry was recorded for 8 hours in the fasted state, and for an additional 40 min after a meal (320 kcal). During the first 4-hour period of the recording saline was administered intravenously. During the second 4-hour period GLP-1 was given intravenously either at a dose of 1.2 pmol/kg/min (72 pmol/kg/h) (n=6) or 2.5 pmol/kg/min (150 pmol/kg/h) (n=6) with the infusion continued over the 40-minute meal period. GLP-1 was administered as an intravenous infusion at a dose of 1.2 or 2.5 pmol/kg/min. The compound was diluted from a stock solution of GLP-1 (Polypeptide, Wolfenbüttel, Hannover, Germany) 100 nmol/ml prepared according to general guidelines with sterilization filtration and endotoxin test, and divided in 10 ml ampoules.
For each patient the solution for infusion was constituted according to body weight. The dose to be given was multiplied by body weight, resulting in an individual dosing, expressed as pmol/min. The calculated total dose (according to extrapolated 250 ml infusion time) was taken from the stock solution and diluted in 250 ml infusion volume of saline (Natriumklorid 9 mg/ml, Pharmacia & Upjohn, Stockholm, Sweden). The infusion was then given at a rate of 1 ml/min with a constant infusion pump (Volumetric infusion pump, model 960, Imed, Oxon, UK) over 4 hours (240 min).
As this premature MMC cycle was considered to be due to an immediate effect of GLP-1 during a build-up of a steady state concentration in the circulation, an adjusted MMC prevalence during GLP-1 infusion was calculated by subtracting the premature MMC at onset from the remaining MMC observed during infusion of GLP-1.
In detail, the following results were obtained from the motility recordings (reference point: angle of Treitz; values are mean ±SEM of n=6 in each group; statistical evaluation by the non-parametric Wilcoxon signed-rank test): […]

gastric emptying = conditions: in man; cited from earlier work
gastric acid secretion = conditions: in man; cited from earlier work

Row | Compound | Symptomatic relief, share of studied patients (dyspepsia symptoms) | Action on gastric emptying and small intestinal motility (in words) [1] | Inhibition of pancreatic secretion (pancreatic secretion) | Time after onset of infusion to start of an MMC in the duodenum ([2]; GLP-1 1.2 pmol/kg/min i.v.) [min] | Contraction frequency ([2]; GLP-1 1.2 pmol/kg/min i.v.) | Contraction amplitude ([2]; GLP-1 1.2 pmol/kg/min i.v.) [mm Hg] | Contraction area ([2]; GLP-1 1.2 pmol/kg/min i.v.) [mm Hg*s] | Motility index Ln (Sum (mm Hg*s)/min) ([2]; GLP-1 1.2 pmol/kg/min i.v.) | Adjusted MMC ([2]; GLP-1 1.2 pmol/kg/min i.v.) | Time after onset of infusion to start of an MMC in the duodenum ([2]; GLP-1 2.5 pmol/kg/min i.v.) [min] | Contraction frequency ([2]; GLP-1 2.5 pmol/kg/min i.v.) | Contraction amplitude ([2]; GLP-1 2.5 pmol/kg/min i.v.) [mm Hg] | Contraction area ([2]; GLP-1 2.5 pmol/kg/min i.v.) [mm Hg*s] | Motility index Ln (Sum (mm Hg*s)/min) ([2]; GLP-1 2.5 pmol/kg/min i.v.) | Adjusted MMC ([2]; GLP-1 2.5 pmol/kg/min i.v.) | Effect on motor activity in the small bowel (overall result in words) ([2]; IBS patients, fasted state) | Patients in whom a premature MMC was started in the duodenum ([2]; in each group (1.2 and 2.5 pmol/kg/min)) | Slowing of gastric emptying (gastric emptying) [%] | Inhibition of gastric acid secretion (gastric acid secretion) [%]
1 | COc1cc(N)c(Cl)cc1C(=O)NC1CCN(CCCOc2ccc(F)cc2)CC1OC (stereo not shown) [cisapride] | 60-90% | – | – | – | – | – | – | – | – | – | – | – | – | – | – | – | – | – | –
2 | glucagon-like peptide-1 [GLP-1] | – | profound inhibitory action | about 45% | ≤ 14.2 ± 3.8 | 1.7 ± 0.4 #/min | 24.7 ± 1.6 | 33.4 ± 3.2 | 4.7 ± 0.3 | 0.0 ± 0.0 #/4 h | ≤ 12.0 ± 2.7 | 0.9 ± 0.2 #/min | 23.6 ± 2.5 | 30.5 ± 5.3 | 3.8 ± 0.8 | 0.2 ± 0.2 #/4 h | able to reduce the motor activity; also recorded: dose-dependent reduction of motor activity | four out of six | 50 | 43
